PubChem BioAssay AID274 (DTP/NCI, 2004)
Values joined by “and” are separate entries in the source; they are usually repeats but may differ in a detail not shown here. Equal values may be shown once. Inconclusive results and toxic doses are left out.

System: BDF1 mice, Lewis lung carcinoma iv, survival T/C
Assay: NCI In Vivo Anticancer Drug Screen. Data for tumor model Lewis Lung Carcinoma (intravenous) in B6D2F1 (BDF1) mice
Settings: endpoint: median survival time, higher = longer survival
Method: The antitumor activity of compounds was measured in mice bearing transplantable tumors. Survival or tumor size were measured and the results are expressed as the measurement made in the treated group (T) divided by the measurement made in the vehicle treated control group (C). The tumor model used in this assay is Lewis Lung Carcinoma (intravenous) in B6D2F1 (BDF1) mice

[1] = dose: 12.5 mg/kg/injection, schedule: Q01DX009 (ip), vehicle: saline
[2] = dose: 25.0 mg/kg/injection, schedule: Q01DX009 (ip), vehicle: saline
[3] = dose: 50.0 mg/kg/injection, schedule: Q01DX009 (ip), vehicle: saline
[4] = dose: 100.0 mg/kg/injection, schedule: Q01DX009 (ip), vehicle: saline
[5] = dose: 400.0 mg/kg/injection, schedule: Q01DX009 (ip), vehicle: saline
[6] = dose: 50.0 mg/kg/injection, schedule: Q01DX009 (ip), vehicle: Klucel (hydroxypropylcellulose) (HPC)
[7] = dose: 400.0 mg/kg/injection, schedule: Q01DX009 (ip), vehicle: Klucel (hydroxypropylcellulose) (HPC)
[8] = dose: 25.0 mg/kg/injection, schedule: Q01DX009 (ip), vehicle: water
[9] = dose: 50.0 mg/kg/injection, schedule: Q01DX009 (ip), vehicle: water
[10] = dose: 100.0 mg/kg/injection, schedule: Q01DX009 (ip), vehicle: water
[11] = dose: 200.0 mg/kg/injection, schedule: Q01DX009 (ip), vehicle: water
[12] = dose: 12.5 mg/kg/injection, schedule: Q01DX009 (ip), vehicle: Klucel (hydroxypropylcellulose) (HPC)
[13] = dose: 25.0 mg/kg/injection, schedule: Q01DX009 (ip), vehicle: Klucel (hydroxypropylcellulose) (HPC)
[14] = dose: 100.0 mg/kg/injection, schedule: Q01DX009 (ip), vehicle: Klucel (hydroxypropylcellulose) (HPC)
[15] = dose: 200.0 mg/kg/injection, schedule: Q01DX009 (ip), vehicle: Klucel (hydroxypropylcellulose) (HPC)
[16] = dose: 3.13 mg/kg/injection, schedule: Q01DX009 (ip), vehicle: saline with Tween-80
[17] = dose: 6.25 mg/kg/injection, schedule: Q01DX009 (ip), vehicle: saline with Tween-80
[18] = dose: 12.5 mg/kg/injection, schedule: Q01DX009 (ip), vehicle: saline with Tween-80
[19] = dose: 50.0 mg/kg/injection, schedule: Q01DX009 (ip), vehicle: saline with Tween-80

CCCCCCCCCCCCCCCCS(=O)CC(O)COC(=O)c1ccc(C(=O)OCC(O)CS(=O)CCCCCCCCCCCCCCCC)cc1 (stereo not given)
T/C (dose: 12.5 mg/kg/injection, schedule: Q01DX009 (ip), vehicle: saline + Tween-80 + alcohol): 88 % of control
T/C (dose: 25.0 mg/kg/injection, schedule: Q01DX009 (ip), vehicle: saline + alcohol): 95 % of control
T/C (dose: 50.0 mg/kg/injection, schedule: Q01DX009 (ip), vehicle: saline + Tween-80 + alcohol): 95 % of control
T/C (dose: 100.0 mg/kg/injection, schedule: Q01DX009 (ip), vehicle: saline + Tween-80 + alcohol): 92 % of control
T/C (dose: 100.0 mg/kg/injection, schedule: Q01DX009 (ip), vehicle: saline + alcohol): 101 % of control
T/C (dose: 200.0 mg/kg/injection, schedule: Q01DX009 (ip), vehicle: saline + Tween-80 + alcohol): 99 % of control
T/C (dose: 200.0 mg/kg/injection, schedule: Q01DX009 (ip), vehicle: saline + alcohol): 218 % of control

C/C=C/C=C/c1cc2cc3c(c(O)c2c(=O)[nH]1)C1(CC3)C(O)=c2c(=O)c3c(=O)cc(OC)c(=O)c=3c(=O)c2=C1O (stereo not given)
T/C (dose: 0.06 mg/kg/injection, schedule: Q01DX009 (ip), vehicle: DMSO): 97 % of control
T/C (dose: 0.12 mg/kg/injection, schedule: Q01DX009 (ip), vehicle: DMSO): 102 % of control
T/C (dose: 0.25 mg/kg/injection, schedule: Q01DX009 (ip), vehicle: DMSO): 95 % of control and 101 % of control
T/C (dose: 0.5 mg/kg/injection, schedule: Q01DX009 (ip), vehicle: DMSO): 102 % of control
T/C (dose: 16.0 micrograms/kg/injection, schedule: Q01DX009 (ip), vehicle: DMSO): 102 % of control
T/C (dose: 31.0 micrograms/kg/injection, schedule: Q01DX009 (ip), vehicle: DMSO): 93 % of control
T/C (dose: 62.0 micrograms/kg/injection, schedule: Q01DX009 (ip), vehicle: DMSO): 91 % of control
T/C (dose: 125.0 micrograms/kg/injection, schedule: Q01DX009 (ip), vehicle: DMSO): 102 % of control

O=C1NC(O)CCN1C1OC(CO)C(O)C1O (stereo not given)
T/C [1]: 110 % of control
T/C [2]: 100 % of control
T/C [3]: 118 % of control
T/C [4]: 118 % of control
T/C (dose: 200.0 mg/kg/injection, schedule: Q01DX009 (ip), vehicle: saline): 98 % of control
T/C [5]: 102 % of control
T/C (dose: 800.0 mg/kg/injection, schedule: Q01DX009 (ip), vehicle: saline): 101 % of control

COc1cc(C(=O)c2cocc2C(=O)c2ccc3c(c2)OCO3)cc(OC)c1OC
T/C [6]: 88 % of control
T/C [7]: 94 % of control

O=C(NO)c1cc(O)c(O)c(O)c1
T/C [8]: 100 % of control
T/C [9]: 100 % of control
T/C [10]: 97 % of control
T/C [11]: 97 % of control

COc1cc2oc(=O)ccc2cc1[C@@H]1OC(=O)C2(C)O[C@@H]12 (stereo not given in full)
T/C (dose: 0.31 mg/kg/injection, schedule: Q01DX009 (ip), vehicle: water): 96 % of control
T/C (dose: 0.62 mg/kg/injection, schedule: Q01DX009 (ip), vehicle: water): 104 % of control
T/C (dose: 1.25 mg/kg/injection, schedule: Q01DX009 (ip), vehicle: water): 101 % of control
T/C (dose: 2.5 mg/kg/injection, schedule: Q01DX009 (ip), vehicle: water): 101 % of control
T/C (dose: 5.0 mg/kg/injection, schedule: Q01DX009 (ip), vehicle: water): 100 % of control

COc1ccc2ccccc2c1C1NC(=O)c2ccccc2N1 (stereo not given)
T/C [12]: 90 % of control
T/C [13]: 92 % of control
T/C [6]: 92 % of control
T/C [14]: 96 % of control
T/C [15]: 98 % of control
T/C [7]: 102 % of control

COc1ccc(C(N)=O)cc1N=NN(C)C
T/C (dose: 3.12 mg/kg/injection, schedule: Q01DX009 (ip), vehicle: Klucel (hydroxypropylcellulose) (HPC)): 95 % of control
T/C (dose: 6.25 mg/kg/injection, schedule: Q01DX009 (ip), vehicle: Klucel (hydroxypropylcellulose) (HPC)): 98 % of control
T/C [12]: 118 % of control
T/C [13]: 110 % of control

CCC1CN2C(=N1)c1ccccc1-c1cc(Cl)ccc12 (stereo not given)
T/C [16]: 104 % of control and 118 % of control
T/C [17]: 109 % of control and 90 % of control
T/C [18]: 100 % of control
T/C (dose: 25.0 mg/kg/injection, schedule: Q01DX009 (ip), vehicle: saline with Tween-80): 94 % of control and 107 % of control
T/C [19]: 102 % of control and 122 % of control

O=C(O)c1ccc(C(=O)O)c(C(=O)O)c1.[NH-]C1CCCCC1[NH-].[Pt+2]
T/C (dose: 0.39 mg/kg/injection, schedule: Q01DX009 (ip), vehicle: sodium bicarbonate): 90 % of control
T/C (dose: 0.78 mg/kg/injection, schedule: Q01DX009 (ip), vehicle: sodium bicarbonate): 100 % of control
T/C (dose: 1.56 mg/kg/injection, schedule: Q01DX009 (ip), vehicle: sodium bicarbonate): 112 % of control
T/C (dose: 3.12 mg/kg/injection, schedule: Q01DX009 (ip), vehicle: sodium bicarbonate): 122 % of control

COC(OC(CO)C(O)S(=O)(=O)O)C(O)S(=O)(=O)O (stereo not given)
T/C [1]: 105 % of control
T/C [2]: 106 % of control
T/C [3]: 102 % of control
T/C [4]: 99 % of control
T/C [5]: 90 % of control

COc1cc(O)c2c(O)c3c(c4c2c1[C@]1(C4)C(C)=CCCC1(C)C)[C@H](O)[C@@]1(O)CC(=O)C(C(N)=O)=C(O)[C@@]1(O)C3=O
T/C (dose: 1.56 mg/kg/injection, schedule: Q01DX009 (ip), vehicle: saline with Tween-80): 112 % of control
T/C [16]: 100 % of control
T/C [17]: 103 % of control
T/C [18]: 102 % of control

CC(CN1CC(=O)NC(=O)C1)N1CC(=O)NC(=O)C1 (stereo not given)
T/C (dose: 64.8 mg/kg/injection, schedule: Q04DX003 (ip), vehicle: Klucel (hydroxypropylcellulose) (HPC)): 110 % of control and 112 % of control and 119 % of control
T/C (dose: 108.0 mg/kg/injection, schedule: Q04DX003 (ip), vehicle: Klucel (hydroxypropylcellulose) (HPC)): 111 % of control and 114 % of control
T/C (dose: 300.0 mg/kg/injection, schedule: Q04DX003 (ip), vehicle: Klucel (hydroxypropylcellulose) (HPC)): 154 % of control and 178 % of control

Nc1nc([Se])c2ncn(C3OC(CO)C(O)C3O)c2n1 (stereo not given)
T/C (dose: 2.0 mg/kg/injection, schedule: Q01DX009 (ip), vehicle: saline): 96 % of control
T/C (dose: 4.0 mg/kg/injection, schedule: Q01DX009 (ip), vehicle: saline): 99 % of control
T/C (dose: 8.0 mg/kg/injection, schedule: Q01DX009 (ip), vehicle: saline): 118 % of control

COc1cc(C)c(C2NC(=O)c3ccccc3N2)cc1C (stereo not given)
T/C [13]: 105 % of control
T/C [6]: 97 % of control
T/C [14]: 92 % of control
T/C [15]: 97 % of control
T/C [7]: 101 % of control

CCc1nc(N)nc(N)c1-c1ccc(Cl)c(Cl)c1.[Cl][Pd][Cl]
T/C [1]: 114 % of control

Clc1ccc(C2SC=Cc3ccccc32)cc1 (stereo not given)
T/C [12]: 94 % of control
T/C [13]: 105 % of control
T/C [6]: 108 % of control
T/C [14]: 108 % of control
T/C [15]: 115 % of control
T/C [7]: 108 % of control

NC(=O)c1csc(C2OC(CO)C(O)C2O)n1 (stereo not given)
T/C [8]: 326 % of control
T/C [9]: 326 % of control
T/C [10]: 326 % of control
T/C [11]: 326 % of control
T/C (dose: 330.0 mg/kg/injection, schedule: Q01DX009 (ip), vehicle: water): 452 % of control
T/C (dose: 400.0 mg/kg/injection, schedule: Q01DX009 (ip), vehicle: water): 326 % of control
T/C (dose: 500.0 mg/kg/injection, schedule: Q01DX009 (ip), vehicle: water): 452 % of control
T/C (dose: 750.0 mg/kg/injection, schedule: Q01DX009 (ip), vehicle: water): 452 % of control

C[C@@H]1CN(C(=O)CCOS(C)(=O)=O)[C@@H](C)CN1C(=O)CCOS(C)(=O)=O
T/C [19]: 93 % of control
T/C (dose: 100.0 mg/kg/injection, schedule: Q01DX009 (ip), vehicle: saline with Tween-80): 101 % of control

CC1CN1C(=O)NCCCCCCNC(=O)N1CC1C (stereo not given)
T/C (dose: 2.5 mg/kg/injection, schedule: Q01DX009 (ip), vehicle: saline + alcohol): 111 % of control
